According to patent US12275685B2, “Oligo-benzamide analogs and their use in cancer treatment” (Board of Regents, The University of Texas System, priority 2018, dated 2025):
“Also recorded” adds a separate entry of the source.

Assays:
tumor growth = experiment: Animal studies with TK41; type: in vivo
Experimental: FIGS. 4A-4C show the effect of TK41 on estrogen receptor-positive (ER+ve) tumor growth. ZR75 (ER+ve; n=18) xenografts were established in nude mice and treated with either vehicle (circle markers) or 10 mg/kg/day TK41 (square markers) administered as an oral gavage in Captisol®. Comparison of mice body weights is shown in bar graphs (FIG. 4C). *p<0.05; **** p<0.001.
FIGS. 5A-5C show the effect of TK41 on triple negative breast cancer xenograft tumors. MDA-MB-231 (TNBC; n=10) xenografts were established in nude mice and treated with either vehicle (circle markers) or 10 mg/kg/day TK41 (square markers) administered as an oral gavage in Captisol®. Comparison of mice body weights is shown in bar graphs (FIG. 5A). Photographs of individual tumors at necropsy supports the effect of TK41 on TNBC. *p<0.05; **** p<0.001.
TNBC is difficult to be treated and currently there are no good drugs available in the market.

TNBC PDX tumors = experiment: TNBC patient derived xenografts (PDX); type: in vivo, mice; conditions: 10 mg/kg/day oral
Experimental: FIGS. 7A-7C show effect of TK41 in triple negative breast cancer in patient derived xenografts. TNBC patient derived xenografts (n=6) were established in nude mice and treated with vehicle (circle markers) or 10 mg/kg/day/oral ERX-41 (i.e., TK41; square markers).
FIGS. 32A-C show established breast PDX tumors treated either with vehicle (circles) or ERX-41 (squares). Tumor volume is graphed (left), distribution of tumor weights at necropsy (middle panel). *p<0.05; […].
FIGS. 35A-P: ERX-41 is potent against TNBC in vivo. (FIG. 35A) Following establishment of subcutaneous MDA-MB-231 xenograft tumors (200 mm^3), 10 mg/kg single dose ERX-41 was administered either by oral or intraperitoneal route. The tumor was harvested 0, 0, 5, 1, 5, 3, 6 and 24 h after drug administration and the drug levels assayed by LC-MS/MS and graphed. (FIGS. 35B-E) Following establishment of MDA-MB-231 xenografts in mammary fat pad in vivo (100 mm^3 size), daily administration of 10 mg/kg ERX-41 or vehicle control (N=8 each group) was initiated. Tumor volumes were measured using digital calipers and graphed (FIG. 35B). Tumor weights (FIG. 35C), body weights (FIG. 35D) and extirpated tumors (FIG. 35E) at end of study are also shown. […] Tumor volumes were measured using digital calipers and graphed (FIG. 35F) along with tumor weights (FIG. 35G) and body weights (FIG. 35H). […]

TNBC cells = experiment: Live cell imaging with SYTOX Green, TNBC; type: cell-based; conditions: within 30 hours of treatment
Excerpt: FIGS. 34A-C: Dose response curve of ERX-41 in multiple TNBC. cell lines using WST-1 assays (FIG. 34A) and CellTiter-Glo assays (FIG. 34B). […] Quantification of the number of dead cells over time seen with live cell imaging in MDAMB-231 and HMEC cells is shown.
To evaluate the generalizability of the inventors' findings, they evaluated ERX-41 in a large number of TNBC and ERa-positive cell lines.

[1] = system: xenografts of SUM-159 with LIPA KO; experiment: SUM-159 LIPA KO xenografts; type: in vivo, SCID mice; conditions: 10 mg/kg daily
Excerpt: FIGS. 37A-J: The molecular target of ERX-41 in TNBC is LIPA. […] (FIG. 37B) Knockout clones of LIPA, ACACA, TMEM208, SOAT1 and ARID1A were generated in MDA-MB-231 cells and evaluated for response to ERX-41 using doseresponse curves using CellTiter-Glo assays in vitro. (FIGS. 37C-D) Effect of knockout of LIPA in SUM-159 (FIG. 37C) and MDA-MB436 (FIG. 37D) on dose response curve to ERX-41 using CellTiter-Glo assays in vitro. (FIGS. 37E-F) Dose response curves of SUM-159 parental cells and clones with LIPA KO to thapsigargin (FIG. 37E) and paclitaxel (FIG. 37F). (FIGS. 37G-H) Live cell imaging studies with SYTOX Green to examine ability of 1 μM ERX-41 to induce cell death in parental SUM-159 and SUM-159 clones with LIPA KO, with quantitation (FIG. 37G) and time-lapsed photomicrographs at 0 h and 30 h ((FIG. 37H). (FIGS. 37I-J) SCID mice were implanted with either parental SUM-159 or SUM-159 clones with LIPA KO (n=6, each group) and tumors were allowed to establish (150 mm^3). Following daily intraperitoneal administration of 10 mg/kg ERX-41, tumor sizes were measured and graphed (FIG. 37I), along with mice body weights (FIG. 37J). *p<0.05. **p<0.01; ***p<0.001.
The molecular target of ERX-41 in TNBC is LIPA. […] Knockout clones of LIPA, SLC5A3, SMAP2, TMEM208, SOAT1 and ARID1A were generated in multiple TNBC cells and evaluated for response to ERX-41.

Structure (SMILES): CC(C)COc1cc(C(=O)Nc2ccc(C(=O)N[C@H]3CC[C@H](C)CC3)cc2OCC(C)C)ccc1NC(=O)c1ccc([N+](=O)[O-])c(OCCO)c1 [TK41]
- side effects or toxicity (tumor growth; animal studies): no apparent side effects or toxicity
- tumor growth inhibition (tumor growth; animal studies): outstanding tumor growth inhibition
- oral availability (tumor growth; mouse, in vivo, po): orally available
- growth of TNBC PDX tumors (TNBC PDX tumors): significantly decreased the growth
- growth of TNBC PDX tumors (TNBC PDX tumors; listed as ERX-41): significantly decreased the rates of growth; also recorded: has activity against TNBC PDX tumors
- cell death, share of cells (TNBC cells): > 90%
- response of SUM-159 LIPA KO xenografts [1]: did not respond
